Results published in ChEMBL document CHEMBL5244235, “Diarylpentanoids with antitumor activity: A critical review of structure-activity relationship studies” (Eur J Med Chem, 2020).

How the values were obtained:
MDA-MB-231 [1] = experiment: Antiproliferative activity against human MDA-MB-231 cells assessed as cell growth inhibition; assay type: functional, cell-based
HCC1419 = experiment: Antiproliferative activity against human HCC1419 cells assessed as cell growth inhibition; assay type: functional, cell-based
MCF7 = experiment: Antiproliferative activity against human MCF7 cells assessed as cell growth inhibition; assay type: functional, cell-based
[2] = Antiproliferative activity against human MCF-10A cells assessed as cell growth inhibition; assay type: toxicity, cell-based
MDA-MB-231 [3] = experiment: Antiproliferative activity against lung metastasis variant of human MDA-MB-231 cells assessed as cell growth inhibition; assay type: functional, cell-based
[4] = Antiproliferative activity against human KATO III stomach cancer cell line assessed as cell growth inhibition by MTT assay; assay type: functional, cell-based
GCIY = experiment: Antiproliferative activity against human GCIY cells assessed as cell growth inhibition by MTT assay; assay type: functional, cell-based
LS174T = experiment: Antiproliferative activity against human LS174T cells assessed as cell growth inhibition by MTT assay; assay type: functional, cell-based
[5] = Antiproliferative activity against human SH-10-TC cells assessed as cell growth inhibition by MTT assay; assay type: functional, cell-based
[6] = Antiproliferative activity against human H-111-TC cells assessed as cell growth inhibition by MTT assay; assay type: functional, cell-based
HeLa = experiment: Antiproliferative activity against human HeLa cells assessed as cell growth inhibition measured after 72 hrs by MTT assay; assay type: functional, cell-based; conditions: Homo sapiens, HeLa, 72 h
Ca-Ski = experiment: Antiproliferative activity against human Ca-Ski cells assessed as cell growth inhibition measured after 72 hrs by MTT assay; assay type: functional, cell-based
HUVEC [7] = experiment: Anti-angiogenesis activity in HUVEC cells; assay type: functional, cell-based; conditions: Homo sapiens
RPMI-7951 [8] = experiment: Antiproliferative activity against human RPMI-7951 cells assessed as cell growth inhibition measured after 72 hrs by neutral red assay; assay type: functional
MDA-MB-231 [9] = experiment: Antiproliferative activity against human MDA-MB-231 cells assessed as cell growth inhibition measured after 72 hrs by neutral red assay; assay type: functional
NSCLC = experiment: Antiproliferative activity against human NSCLC cells assessed as cell growth inhibition measured after 72 hrs by neutral red assay; assay type: functional
[10] = test system: Panel CNS (Carcinoma cell lines); experiment: Antiproliferative activity against human Panel CNS (Carcinoma cell lines) assessed as cell growth inhibition measured after 72 hrs by neutral red assay; assay type: functional
[11] = test system: Panel leukemia (Carcinoma cell lines); experiment: Antiproliferative activity against human Panel leukemia (Carcinoma cell lines) assessed as cell growth inhibition measured after 72 hrs by neutral red assay; assay type: functional
[12] = test system: Panel colon (Carcinoma cell lines); experiment: Antiproliferative activity against human Panel colon (Carcinoma cell lines) assessed as cell growth inhibition measured after 72 hrs by neutral red assay; assay type: functional
[13] = test system: Panel melanoma (Carcinoma cell lines); experiment: Antiproliferative activity against human Panel melanoma (Carcinoma cell lines) assessed as cell growth inhibition measured after 72 hrs by neutral red assay; assay type: functional
[14] = test system: Panel ovarian (Carcinoma cell lines); experiment: Antiproliferative activity against human Panel ovarian (Carcinoma cell lines) assessed as cell growth inhibition measured after 72 hrs by neutral red assay; assay type: functional
[15] = test system: Panel renal (Carcinoma cell lines); experiment: Antiproliferative activity against human Panel renal (Carcinoma cell lines) assessed as cell growth inhibition measured after 72 hrs by neutral red assay; assay type: functional
[16] = test system: Panel prostate (Carcinoma cell lines); experiment: Antiproliferative activity against human Panel prostate (Carcinoma cell lines) assessed as cell growth inhibition measured after 72 hrs by neutral red assay; assay type: functional
[17] = test system: Panel breast (Carcinoma cell lines); experiment: Antiproliferative activity against human Panel breast (Carcinoma cell lines) assessed as cell growth inhibition measured after 72 hrs by neutral red assay; assay type: functional
SVR = experiment: Anti-angiogenesis activity in mouse SVR cells assessed as cell growth inhibition; assay type: functional, cell-based
[18] = Anti-angiogenesis activity in […] MS-1 cells assessed as cell growth inhibition; assay type: functional, cell-based
HUVEC [19] = experiment: Anti-angiogenesis activity in HUVEC cells assessed as cell growth inhibition; assay type: functional, cell-based; conditions: Homo sapiens
[20] = Antiproliferative activity against human Panel NCI-58 (58 carcinoma cell lines) assessed as cell growth inhibition; assay type: functional
[21] = Cytotoxicity activity against mouse SVR cells assessed as cell growth inhibition at 4 ug/ml relative to control; assay type: toxicity, cell-based; conditions: at 4 µg/mL
[22] = Cytotoxicity activity against mouse SVR cells assessed as cell growth inhibition at 6 ug/ml relative to control; assay type: toxicity, cell-based; conditions: at 6 µg/mL
[23] = Cytotoxicity activity against mouse SVR cells assessed as cell growth inhibition at 3 ug/ml relative to control; assay type: toxicity, cell-based; conditions: at 3 µg/mL
B16 = experiment: Antiproliferative activity against mouse B16 cells assessed as cell growth inhibition; assay type: functional, cell-based
L1210 = experiment: Antiproliferative activity against mouse L1210 cells assessed as inhibition of cell growth; assay type: functional, cell-based
[24] = Antiproliferative activity against human MRC9 cells assessed as cell growth inhibition measured after 72 hrs by MTT assay; assay type: functional, cell-based; conditions: MRC9, 72 h
A549 [25] = experiment: Antiproliferative activity against human A549 cells assessed as cell growth inhibition measured after 48 hrs by MTT assay; assay type: functional, cell-based; conditions: A549, 48 h
NCI-H460 [26] = experiment: Antiproliferative activity against human NCI-H460 cells assessed as cell growth inhibition measured after 48 hrs by MTT assay; assay type: functional, cell-based; conditions: NCI-H460, 48 h
MDA-MB-231 [27] = experiment: Growth inhibition of human MDA-MB-231 cells measured after 72 hrs by microplate reader analysis; assay type: functional
RPMI-7951 [28] = experiment: Growth inhibition of human RPMI-7951 cells measured after 72 hrs by microplate reader analysis; assay type: functional, cell-based
[29] = Cytotoxicity against HUVEC cells assessed as cell growth inhibition by anti-angiogenisis screening assay; assay type: toxicity, cell-based; conditions: human
[30] = Cytotoxicity against mouse MS-1 cells assessed as cell growth inhibition by anti-angiogenisis screening assay; assay type: toxicity, cell-based
[31] = Cytotoxicity against mouse SVR cells assessed as cell growth inhibition by anti-angiogenisis screening assay; assay type: toxicity, cell-based
A549 [32] = experiment: Anticancer activity against human A549 cells assessed as cell growth inhibition; assay type: functional
NCI-H460 [33] = experiment: Anticancer activity against human NCI-H460 cells assessed as cell growth inhibition; assay type: functional

Compound `CCN(CC)CCOc1ccc(C(=O)N2C/C(=C\c3ccccc3)C(=O)/C(=C/c3ccccc3)C2)cc1` has an IC50 (MDA-MB-231 [1]) of 720 nM, an IC50 (HCC1419) of 1460 nM and an IC50 (MCF7) of 1640 nM. For the same compound, the IC50 [2] was 41000 nM and the IC50 (MDA-MB-231 [3]) was 530 nM.

With `Cc1ccc(/C=C2\CN(C(=O)c3ccc(OCCN(C)C)cc3)C/C(=C\c3ccc(C)cc3)C2=O)cc1` the IC50 (MDA-MB-231 [1]) was 720 nM, the IC50 (HCC1419) was 1460 nM and the IC50 (MCF7) was 1640 nM. For the same compound, the IC50 [2] was 41000 nM and the IC50 (MDA-MB-231 [3]) was 530 nM.

With `COc1cc(/C=C/C(=O)/C=C/c2ccc(O)c(OC)c2)ccc1O` the IC50 [4] was 5980 nM, the IC50 (GCIY) was 7320 nM and the IC50 (LS174T) was 3700 nM. For the same compound, the IC50 [5] was 3280 nM, the IC50 [6] was 3670 nM and the EC50 (HeLa) was 1030 nM. The EC50 (Ca-Ski) was 1030 nM and the IC50 (HUVEC [7]) was 400 nM.

`O=C1/C(=C/c2ccccc2O)CCC/C1=C\c1ccccc1O` showed a GI50 (RPMI-7951 [8]) of 1600 nM, a GI50 (MDA-MB-231 [9]) of 1600 nM and a GI50 (NSCLC) of 1600 nM. The GI50 [10] was 1600 nM, the GI50 [11] was 1600 nM and the GI50 [12] was 1600 nM. For the same compound, the GI50 [13] was 1600 nM, the GI50 [14] was 1600 nM and the GI50 [15] was 1600 nM. For the same compound, the GI50 [16] was 1600 nM, the GI50 [17] was 1600 nM and the GI50 (SVR) was 2000 nM. The GI50 [18] was 2000 nM and the GI50 (HUVEC [19]) was 2000 nM.

`CCOc1cc(/C=C2\CN(C)C/C(=C\c3ccc(O)c(OCC)c3)C2=O)ccc1O` showed a GI50 [20] of 1400 nM.

`O=C(/C=C/c1ccccc1)/C=C/c1ccccc1` showed an inhibition at 4 ug/ml [21] of 87.1% and an inhibition at 6 ug/ml [22] of 90.4%.

Work on `O=C1/C(=C/c2ccccn2)CCC/C1=C\c1ccccn1` yielded an inhibition at 6 ug/ml [22] of 96% and an inhibition at 3 ug/ml [23] of 90.1%.

Compound `COc1cc(/C=C2\CNC/C(=C\c3cc(OC)cc(OC)c3)C2=O)cc(OC)c1` has an IC50 (B16) of 200 nM.

In the case of `O=C1/C(=C/c2cccc(O)c2)CNC/C1=C\c1cccc(O)c1`, the IC50 (B16) is reported as 200 nM and the IC50 (L1210) is reported as 300 nM.

With `O=C(/C=C/c1c(Cl)cccc1Cl)/C=C/c1c(Cl)cccc1Cl` the inhibition at 4 ug/ml [21] was 87.1% and the inhibition at 6 ug/ml [22] was 90.4%.

Work on `O=C1/C(=C/c2cccc(F)c2)CCC/C1=C\c1cccc(F)c1` yielded an EC50 [24] of 16400 nM, an EC50 (HeLa) of 8300 nM and an EC50 (Ca-Ski) of 6000 nM.

`O=C1/C(=C/c2ccccc2F)CCC/C1=C\c1ccccc1F` showed an IC50 (A549 [25]) of 30500 nM and an IC50 (NCI-H460 [26]) of 28700 nM.

For `O=C(/C=C/c1ccccc1F)/C=C/c1ccccc1F`, the GI50 (MDA-MB-231 [27]) was 1000 nM, the GI50 (RPMI-7951 [28]; RPMI-7951, time 72 hrs) was 2300 nM and the GI50 [29] was 6100 nM. It also gave a GI50 [30] of 6100 nM, a GI50 [31] of 6100 nM and a GI50 (A549 [32]) of 17000 nM. For the same compound, the GI50 (NCI-H460 [33]) was 11300 nM.

`CN1C/C(=C\c2ccccc2O)C(=O)/C(=C/c2ccccc2O)C1` showed a GI50 (MDA-MB-231 [27]) of 900 nM, an IC50 (RPMI-7951 [28]; RPMI-7951, 72 h) of 900 nM and an IC50 (SVR) of 1100 nM. The IC50 [18] was 1100 nM and the IC50 (HUVEC [19]) was 1100 nM.
